One compound from article PMC7363588, “Mapping of the FGF14:Nav1.6 complex interface reveals FLPK as a functionally active peptide modulating excitability” (Physiological Reports, 2020) can be followed below.

The target of the assay is T1, FGF14^V160A (Homo sapiens, UniProt Q92915, V155A).
T1 construct: aa 64–252); 6X His (N); made in house; host or cells: E. coli BL21 (DE3) pLys
T1 sequence (Q92915 64-252 isoform Q92915-2 V160A): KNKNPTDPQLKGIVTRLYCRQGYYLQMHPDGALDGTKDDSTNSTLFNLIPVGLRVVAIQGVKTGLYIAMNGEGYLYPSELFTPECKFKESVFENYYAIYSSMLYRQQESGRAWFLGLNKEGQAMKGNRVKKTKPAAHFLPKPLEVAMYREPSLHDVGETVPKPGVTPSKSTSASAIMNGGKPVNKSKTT
Kind of assay: SPR binding to FGF14^V160A. An excerpt:
Plasmids used in this study derived from the following clones: human FGF14‐1b isoform (accession number: NM_175929.2) and human Nav1.6 (accession number: NM_014191.3). The CLuc‐FGF14, CD4‐Nav1.6‐NLuc, constructs and the pcDNA3.1 vector (Invitrogen, Carlsbad, CA) were engineered and characterized as previously described (Goetz et al., 2009; Shavkunov et al., 2012,2013,2015; Ali et al., 2016, 2018; Wadsworth et al., 2019). The plasmid pGL3 expressing full length Firefly (Photinus pyralis) luciferase was a gift from Dr. P. Sarkar (Department of Neurology, UTMB). For protein purification studies, cDNAs encoding FGF14‐1b (accession number NP_787125; aa 64–252) or the C‐terminal tail of Nav1.6 (accession number #NP_001171455; aa 1756–1939) were subcloned into suitable pET bacterial expression vectors (pET28a‐FGF14; pET30a‐Nav1.6) with a 6X His‐tag at the N‐terminal site; these plasmids were a gift of Dr. Moosa Mohammadi (NYU, Langone Medical Center). The mutation coding for FGF14^V160A was generated by site‐directed mutagenesis and PCR using FGF14‐1b as a template described previously (Ali et al., 2016). For electrophysiological studies FGF14‐GFP (human) and FGF14‐ΔNT‐GFP (human) were cloned into the GFP plasmid (pQBI‐fC2; Quantum Biotechnology Inc., Montreal, Canada) as previously described.
Upon transformation with corresponding cDNA clones, the recombinant proteins FGF14, FGF14^V160A and Nav1.6 C‐terminal tail were expressed in E. coli BL21 (DE3) pLys (Invitrogen) after induction with 0.1 mM isopropyl thio‐β‐D‐galacto‐pyranoside (IPTG) for 24 hr at 16°C. […]
SPR experiments were performed on a Biacore T100 (GE Healthcare Bio‐Sciences, Pittsburgh, PA), and the interaction of FGF14 and Nav1.6 channel toward FLPK, PLEV and EYYV (1–100 µM) were studied at 25°C. […] Maximal equilibrium responses were plotted against peptide concentrations and association rate constant (kon), dissociation rate constatnt (koff) were determined. […]
On the technique in general: In SPR one partner is held on a chip, and binding of the other changes the refractive index at the surface.

The mark [1] stands for this setting: CM5, 25°C, 1–100 µM, RU 18,000, N.M. = not measurable.

Entries after “also recorded” stand apart in the source; their conditions may differ. Peptide text beside a SMILES is read from it.

For `CC(=O)N[C@@H](Cc1ccccc1)C(=O)N[C@@H](CC(C)C)C(=O)N1CCC[C@H]1C(=O)N[C@@H](CCCCN)C(N)=O` [FLPK] (Ac-FLPK-NH2), under setting [1], the “koff, dissociation rate constant” value is on record as “N.M” and the “kon, association rate constant” value was “N.M”. Moreover, the “binding to FGF14^V160A” value (peptide 1–100 µM) is given as “no measurable binding; also recorded: no binding of FLPK was detected”.
